US20090069430A1, “DIBENZENE DERIVATIVES AS CALCIUM CHANNEL BLOCKERS” (NEUROPHARMA, S.A., priority 2005, published 2009)

Tested on: VDCC
Assay: VDCC inhibition: calcium entry (Fluo-4 fluorescence) after depolarization with 60 mM KCl in SH-SY5Y neuroblastoma cells
Format: cell-based, human
Procedure: This assay is aimed to determine the VDCC blocker activity of compounds; it is performed using SH-SY5Y neuroblastoma cells. SH-SY5Y cells were plated at 5×10^4 cells per well into Black/Clear Bottom 96-well culture plate, 48 hours before treatment. Cells were loaded with Fluo-4, 5 μM and pluronic acid, 0.1%, for 30 min at 37° C., 5% CO2, following a incubation of 15 min at RT in Krebs-HEPES solution. Immediately cells are exposed to the samples for 10 min at different concentrations, depending on potency. After the treatment, calcium entry is measured as fluorescence in a Fluostar Optima plate reader (BMG) in response to depolarization with 60 mM KCl. The excitation wavelength was 485 nm, and that of emission 520 nm.

[1] = compound at 10^−5, 10 min exposure
[2] = compound at 10^−6, 10 min exposure
[3] = compound at 10^−7, 10 min exposure
[4] = compound at 10^−8, 10 min exposure

SMILES	% of calcium entry inhibition [1]	% of calcium entry inhibition [2]	% of calcium entry inhibition [3]	% of calcium entry inhibition [4]
COCOc1cc(OC)ccc1C(=O)NCCCCCNC(=O)c1ccc(OC)cc1OCOC [Compound 1]	57.8 ± 16%	–	–	–
COCOc1cc(OC)ccc1C(=O)NCCCOc1ccc(CCNC(=O)c2ccc(OC)cc2OCOC)cc1 [Compound 2]	93.3 ± 5%	34.2 ± 1.5%	29.7 ± 14%	31.2 ± 9%
COCOc1cc(OC)ccc1C(=O)NCCCOc1c(Br)cc(CCNC(=O)c2ccc(OC)cc2OCOC)cc1Br [Compound 4]	–	–	6 ± 0%	–
COc1cc(O)c(C(=O)NCCCCCNC(=O)c2cc(Br)c(OC)cc2O)cc1Br [Compound 5]	–	0%	–	–
COc1cc(O)c(C(=O)NCCCCCNC(=O)c2cc(Br)c(OC)c(Br)c2O)cc1Br [Compound 6]	96.6 ± 4%	48.7 ± 18%	27.5 ± 5%	11.8 ± 16%
COc1c(Br)cc(C(=O)NCCCCCNC(=O)c2cc(Br)c(OC)c(Br)c2O)c(O)c1Br [Compound 7]	90.7 ± 3%	3.1 ± 0%	–	–
CCOC(=O)COc1cc(OC)ccc1C(=O)NCCCOc1ccc(CCNC(=O)c2ccc(OC)cc2OCC(=O)OCC)cc1 [Compound 8]	57 ± 7%	0%	–	–
CCCOc1cc(OC)ccc1C(=O)NCCCOc1ccc(CCNC(=O)c2ccc(OC)cc2OCCC)cc1 [Compound 9]	86 ± 0.5%	61 ± 0%	0%	–
COCCOc1cc(OC)ccc1C(=O)NCCCOc1ccc(CCNC(=O)c2ccc(OC)cc2OCCOC)cc1 [Compound 10]	79 ± 0.1%	22 ± 19%	0%	–
COc1ccc(C(=O)NCCCOc2ccc(CCNC(=O)c3ccc(OC)cc3OCC(C)=O)cc2)c(OCC(C)=O)c1 [Compound 11]	36 ± 3%	0%	–	–
COc1ccc(C(=O)NCCCCCNC(=O)c2ccc(OC)c(C)c2OC)c(OC)c1C [Compound 12]	78 ± 2.5%	0%	–	–
COc1cc(OC)c(C(=O)NCCCCCNC(=O)c2ccc(OC)c(C)c2OC)cc1OC [Compound 13]	27 ± 2%	0%	–	–
COc1ccc(C(=O)NCCCCCCNC(=O)c2ccc(OC)cc2OC)c(OC)c1 [Compound 14]	38 ± 6%	0%	–	–
COc1ccc(C(=O)NCCCOc2ccc(CCNC(=O)c3ccc(OC)cc3OC)cc2)c(OC)c1 [Compound 15]	91.5 ± 1.5%	37 ± 5%	0%	–
COc1ccc(C(=O)NCCCOc2ccc(CCNC(=O)c3ccc(OC)cc3OCC(C)C)cc2)c(OCC(C)C)c1 [Compound 16]	39 ± 4%	0%	–	–
COc1ccc(C(=O)NCCCOc2ccc(CCNC(=O)c3ccc(OC)cc3OCC=C(C)C)cc2)c(OCC=C(C)C)c1 [Compound 17]	45 ± 12%	39 ± 8%	0%	–
CCCCOc1cc(OC)ccc1C(=O)NCCCOc1ccc(CCNC(=O)c2ccc(OC)cc2OCCCC)cc1 [Compound 18]	37 ± 2%	0%	–	–
CCC(C)Oc1cc(OC)ccc1C(=O)NCCCOc1ccc(CCNC(=O)c2ccc(OC)cc2OC(C)CC)cc1 (stereo not shown) [Compound 19]	75 ± 12%	69 ± 1%	0%	–
CCC(C)Oc1cc(OC)ccc1C(=O)NCCCCCCNC(=O)c1ccc(OC)cc1OC(C)CC (stereo not shown) [Compound 20]	91 ± 3%	59 ± 19%	0%	–
CCCCCOc1cc(OC)ccc1C(=O)NCCCCCCNC(=O)c1ccc(OC)cc1OCCCCC [Compound 21]	27 ± 7%	0%	–	–
CCCCOc1cc(OC)ccc1C(=O)NCCCCCCNC(=O)c1ccc(OC)cc1OCCCC [Compound 22]	24 ± 12%	0%	–	–
